Measured values from PMC9006931, “Altered Response Pattern following AZD5582 Treatment of SIV-Infected, ART-Suppressed Rhesus Macaque Infants” (Journal of Virology, 2022).

How the values were obtained:
[1] = tested on: CD4+ T cells from SIV-infected, ART-suppressed adult RMs; assay: Ex vivo viral RNA induction assay, adult CD4+ T cells; assay type: cell-based, rhesus macaque; conditions: 100 nM, 9 days, in presence of DTG+FTC
Source text: (§1) Following confirmation of ncNF-κB pathway activation in infant naive and memory CD4^+ T cells ex vivo, we next sought to evaluate SIV reactivation following ex vivo AZD5582 stimulation in CD4^+ T cells isolated from SIV-infected, ART-suppressed infant RMs compared to CD4^+ T cells from SIV-infected, ART-suppressed adult RMs. To do so, we isolated CD4^+ T cells through negative selection from the peripheral blood of five SIV-infected, ART-suppressed adult RMs and five SIV-infected, ART-suppressed infant RMs. Cells were stimulated with either 100 nM AZD5582 or rhesus specific anti-CD2/CD3/CD28 beads (as a positive control) in the presence of ART (DTG+FTC) for 9 days. The supernatant was collected to quantify SIVgag RNA through qPCR as a measure of viral reactivation.
(§2) Viable cryopreserved PBMCs from SIV-infected, ART-suppressed infant and adult RMs collected 34 to 97 weeks post ART initiation were thawed, and CD4^+ T cells were enriched by negative selection using the NHP CD4^+ T cell isolation kit (Miltenyi Biotec). […] The viral RNA content of frozen cell-free culture supernatants collected on day 9 was determined using the SIVgag qPCR described above.

[2] = tested on: CD4+ T cells from SIV-infected, ART-suppressed infant RMs; assay: Ex vivo viral RNA induction assay, infant CD4+ T cells; assay type: cell-based, rhesus macaque; conditions: 100 nM, 9 days, in presence of DTG+FTC
Source text: as §1, §2

[3] = Tolerability of repeated AZD5582 infusions in infant RMs; assay type: in vivo; conditions: 0.1 mg/kg i.v., 10 infusions
Procedure: The IAPi AZD5582 was reconstituted to 0.4 mg/mL in 10% Captisol within 1 week of administration as previously described ([17]). Monkeys assigned to the experimental intervention group received 10 administrations of 0.1 mg/kg AZD5582 by intravenous (i.v.) infusion with an inline filter for 30 minutes every week for 10 weeks.
EDTA-anticoagulated blood samples were collected regularly and used for a complete blood count, routine chemical analysis, and immunostaining, with plasma separated by centrifugation within 1 h of phlebotomy. PBMCs were prepared by density gradient centrifugation. Lymph node biopsy specimens were collected at indicated time points (Fig. 2A). Lymph nodes were ground using a 70-μm cell strainer. Cell suspensions were washed and immediately used for immunostaining or cryopreserved at −80°C until use.

## CN[C@@H](C)C(=O)N[C@H](C(=O)N1CCC[C@H]1C(=O)N[C@H]1c2ccccc2C[C@H]1OCC#CC#CCO[C@@H]1Cc2ccccc2[C@@H]1NC(=O)[C@@H]1CCCN1C(=O)[C@@H](NC(=O)[C@H](C)NC)C1CCCCC1)C1CCCCC1 [AZD5582]
[1]
  Animals whose CD4+ T cell cultures showed increased SIV RNA expression in supernatant: 3/5
[2]
  Animals whose CD4+ T cell cultures showed increased SIV RNA expression in supernatant: 1/5
[3]
  Tolerability / clinical adverse events: well-tolerated and safe
